Source: PubChem BioAssay (NCI)
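Five compound concentrations were applied to cells in 96-well plates for 48 hours; endpoints were derived by simple linear interpolation of the resulting dose-response curve. GI50 marks 50% less growth. TGI: concentration producing complete growth inhibition.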

Columns and labels:
Assay in all cases: NCI tumour cell line growth inhibition, 48 h
786-0 renal = test system: 786-0 renal
A498 renal = test system: A498 renal
A549 NSCLC = test system: A549 NSCLC
ACHN renal = test system: ACHN renal
BT-549 breast = test system: BT-549 breast
CAKI-1 renal = test system: CAKI-1 renal
CCRF-CEM leukemia = test system: CCRF-CEM leukemia
COLO 205 colon = test system: COLO 205 colon
DU-145 prostate = test system: DU-145 prostate
HCC-2998 colon = test system: HCC-2998 colon
HCT-116 colon = test system: HCT-116 colon
HCT-15 colon = test system: HCT-15 colon
HL-60(TB) leukemia = test system: HL-60(TB) leukemia
HOP-62 NSCLC = test system: HOP-62 NSCLC
HOP-92 NSCLC = test system: HOP-92 NSCLC
HS 578T breast = test system: HS 578T breast
HT29 colon = test system: HT29 colon
IGROV1 ovarian = test system: IGROV1 ovarian
K-562 leukemia = test system: K-562 leukemia
KM12 colon = test system: KM12 colon
LOX IMVI melanoma = test system: LOX IMVI melanoma
MCF7 breast = test system: MCF7 breast
MDA-MB-231 breast = test system: MDA-MB-231 breast
MDA-MB-435 = test system: MDA-MB-435
NCI-H226 lung = test system: NCI-H226 lung
NCI-H23 lung = test system: NCI-H23 lung
NCI-H460 lung = test system: NCI-H460 lung
NCI-H522 lung = test system: NCI-H522 lung
NCI/ADR-RES ovarian = test system: NCI/ADR-RES ovarian
OVCAR-3 ovarian = test system: OVCAR-3 ovarian
OVCAR-4 ovarian = test system: OVCAR-4 ovarian
OVCAR-5 ovarian = test system: OVCAR-5 ovarian
OVCAR-8 ovarian = test system: OVCAR-8 ovarian
RPMI-8226 leukemia = test system: RPMI-8226 leukemia
RXF 393 renal = test system: RXF 393 renal
SF-268 CNS = test system: SF-268 CNS
SF-295 CNS = test system: SF-295 CNS
SF-539 CNS = test system: SF-539 CNS
SK-MEL-28 melanoma = test system: SK-MEL-28 melanoma
SK-MEL-5 melanoma = test system: SK-MEL-5 melanoma
SK-OV-3 ovarian = test system: SK-OV-3 ovarian
SN12C renal = test system: SN12C renal
SNB-19 CNS = test system: SNB-19 CNS
SNB-75 CNS = test system: SNB-75 CNS
SR leukemia = test system: SR leukemia
SW-620 colon = test system: SW-620 colon
T-47D breast = test system: T-47D breast
TK-10 renal = test system: TK-10 renal
U251 CNS = test system: U251 CNS
UACC-257 melanoma = test system: UACC-257 melanoma
UO-31 renal = test system: UO-31 renal
EKVX NSCLC = test system: EKVX NSCLC
M14 melanoma = test system: M14 melanoma
MOLT-4 leukemia = test system: MOLT-4 leukemia
PC-3 prostate = test system: PC-3 prostate
SK-MEL-2 melanoma = test system: SK-MEL-2 melanoma
UACC-62 melanoma = test system: UACC-62 melanoma

## Cc1cc(Nc2ncc(F)c(N[C@H]3[C@@H](C(N)=O)[C@@H]4C=C[C@H]3C4)n2)ccc1N1CCN(C)CC1
786-0 renal
  GI50: 0.0688 µM
  TGI: 5.25 µM
A498 renal
  GI50: < 0.0116 µM
  TGI: 0.0693 µM
A549 NSCLC
  GI50: < 0.01 µM
  TGI: 2.32 µM
ACHN renal
  GI50: 0.0178 µM
  TGI: 12.9 µM
BT-549 breast
  GI50: 0.0765 µM
  TGI: 1.15 µM
CAKI-1 renal
  GI50: 0.0217 µM
  TGI: 14 µM
CCRF-CEM leukemia
  GI50: < 0.01 µM
  TGI: 6.03 µM
COLO 205 colon
  GI50: < 0.01 µM
  TGI: < 0.0326 µM
DU-145 prostate
  GI50: 0.455 µM
  TGI: 17.7 µM
HCC-2998 colon
  GI50: 2.15 µM
  TGI: 6.18 µM
HCT-116 colon
  GI50: 0.0199 µM
  TGI: 7.81 µM
HCT-15 colon
  GI50: 0.0374 µM
  TGI: 16 µM
HL-60(TB) leukemia
  GI50: 2.96 µM
  TGI: 11.4 µM
HOP-62 NSCLC
  GI50: 0.134 µM
  TGI: 2.56 µM
HOP-92 NSCLC
  GI50: 0.0249 µM
  TGI: 0.327 µM
HS 578T breast
  GI50: 0.0274 µM
  TGI: 0.33 µM
HT29 colon
  GI50: 0.0471 µM
IGROV1 ovarian
  GI50: 0.0302 µM
  TGI: 18.8 µM
K-562 leukemia
  GI50: 0.416 µM
  TGI: > 100 µM
KM12 colon
  GI50: 0.208 µM
  TGI: 11.5 µM
LOX IMVI melanoma
  GI50: 0.0249 µM
  TGI: 1.29 µM
MCF7 breast
  GI50: 0.0599 µM
  TGI: 3.23 µM
MDA-MB-231 breast
  GI50: 0.124 µM
  TGI: 1.73 µM
MDA-MB-435
  GI50: 1.49 µM
  TGI: 15.6 µM
NCI-H226 lung
  GI50: < 0.0156 µM
  TGI: 2.85 µM
NCI-H23 lung
  GI50: 1.51 µM
  TGI: 7.15 µM
NCI-H460 lung
  GI50: 0.0101 µM
  TGI: 4.21 µM
NCI-H522 lung
  GI50: 0.0436 µM
  TGI: 3.35 µM
NCI/ADR-RES ovarian
  GI50: 0.348 µM
  TGI: 8.57 µM
OVCAR-3 ovarian
  GI50: 1.48 µM
  TGI: 3.15 µM
OVCAR-4 ovarian
  GI50: 1.6 µM
  TGI: 3.22 µM
OVCAR-5 ovarian
  GI50: 0.0405 µM
  TGI: > 20.4 µM
OVCAR-8 ovarian
  GI50: 0.133 µM
  TGI: 6.34 µM
RPMI-8226 leukemia
  GI50: 1.86 µM
  TGI: 6.85 µM
RXF 393 renal
  GI50: 0.0165 µM
  TGI: 0.187 µM
SF-268 CNS
  GI50: 0.107 µM
  TGI: 6.68 µM
SF-295 CNS
  GI50: < 0.0177 µM
  TGI: 12.7 µM
SF-539 CNS
  GI50: 0.0362 µM
  TGI: 0.586 µM
SK-MEL-28 melanoma
  GI50: 4.28 µM
  TGI: 17.7 µM
SK-MEL-5 melanoma
  GI50: 1.97 µM
  TGI: 6.79 µM
SK-OV-3 ovarian
  GI50: 0.0368 µM
  TGI: 2.22 µM
SN12C renal
  GI50: 0.0328 µM
  TGI: 11.5 µM
SNB-19 CNS
  GI50: 0.725 µM
  TGI: 8.75 µM
SNB-75 CNS
  GI50: < 0.0153 µM
  TGI: 0.167 µM
SR leukemia
  GI50: < 0.01 µM
  TGI: 2.32 µM
SW-620 colon
  GI50: 0.0218 µM
  TGI: 8.5 µM
T-47D breast
  GI50: 6.74 µM
  TGI: 26.7 µM
TK-10 renal
  GI50: 0.0225 µM
  TGI: 1.96 µM
U251 CNS
  GI50: 0.0694 µM
  TGI: 4.8 µM
UACC-257 melanoma
  GI50: 4.07 µM
  TGI: 18.1 µM
UO-31 renal
  GI50: 0.0393 µM
  TGI: 4.64 µM

## COc1ccc2c(=O)c(-c3cc4c(cc3OC)OCO4)coc2c1
786-0 renal
  TGI: > 100 µM
A498 renal
  TGI: > 100 µM
A549 NSCLC
  TGI: > 100 µM
ACHN renal
  TGI: > 100 µM
BT-549 breast
  TGI: > 100 µM
CAKI-1 renal
  TGI: > 100 µM
CCRF-CEM leukemia
  TGI: > 100 µM
COLO 205 colon
  TGI: > 100 µM
DU-145 prostate
  TGI: > 100 µM
EKVX NSCLC
  TGI: > 100 µM
HCC-2998 colon
  TGI: > 100 µM
HCT-116 colon
  TGI: > 100 µM
HCT-15 colon
  TGI: > 100 µM
HL-60(TB) leukemia
  TGI: > 100 µM
HOP-62 NSCLC
  TGI: > 100 µM
HOP-92 NSCLC
  TGI: > 100 µM
HS 578T breast
  TGI: > 100 µM
HT29 colon
  TGI: > 100 µM
IGROV1 ovarian
  TGI: > 100 µM
KM12 colon
  TGI: > 100 µM
LOX IMVI melanoma
  TGI: > 100 µM
M14 melanoma
  TGI: > 100 µM
MCF7 breast
  TGI: > 100 µM
MDA-MB-231 breast
  TGI: > 100 µM
MOLT-4 leukemia
  TGI: > 100 µM
NCI-H226 lung
  TGI: > 100 µM
NCI-H23 lung
  TGI: > 100 µM
NCI-H460 lung
  TGI: > 100 µM
NCI-H522 lung
  TGI: > 100 µM
NCI/ADR-RES ovarian
  TGI: > 100 µM
OVCAR-3 ovarian
  TGI: > 100 µM
OVCAR-4 ovarian
  TGI: > 100 µM
OVCAR-5 ovarian
  TGI: > 100 µM
OVCAR-8 ovarian
  TGI: > 100 µM
PC-3 prostate
  TGI: > 100 µM
RPMI-8226 leukemia
  TGI: > 100 µM
SF-268 CNS
  TGI: > 100 µM
SF-295 CNS
  TGI: > 100 µM
SF-539 CNS
  TGI: > 100 µM
SK-MEL-2 melanoma
  TGI: > 100 µM
SK-MEL-28 melanoma
  TGI: > 100 µM
SK-MEL-5 melanoma
  TGI: > 100 µM
SK-OV-3 ovarian
  TGI: > 100 µM
SN12C renal
  TGI: > 100 µM
SNB-19 CNS
  TGI: > 100 µM
SNB-75 CNS
  TGI: > 100 µM
SR leukemia
  TGI: > 100 µM
SW-620 colon
  TGI: > 100 µM
T-47D breast
  TGI: > 100 µM
TK-10 renal
  TGI: > 100 µM
U251 CNS
  TGI: > 100 µM
UACC-257 melanoma
  TGI: > 100 µM
UACC-62 melanoma
  TGI: > 100 µM
UO-31 renal
  TGI: > 100 µM
